Reference: patent US20210317092A1 (BAYER PHARMA AKTIENGESELLSCHAFT, priority 2016, published 2021)
Like-named read-outs stand apart in the source and are kept apart here.

Tests used:
[1] = target: T1, native human Bradykinin B1 receptor (Homo sapiens, UniProt P46663); assay: Calcium flux Assay (FLIPR) with human fibroblasts expressing Bradykinin B1 receptor (hB1 IMR-90); assay type: cell-based; settings: IMR-90 human fibroblasts expressing native Bradykinin B1 receptor
T1 construct: which express native human Bradykinin B1 receptor after induction with human IL-10; Coriell Institute; host or cells: IMR-90 human foetal lung fibroblasts, cytokine-induced
T1 sequence (P46663 1-353): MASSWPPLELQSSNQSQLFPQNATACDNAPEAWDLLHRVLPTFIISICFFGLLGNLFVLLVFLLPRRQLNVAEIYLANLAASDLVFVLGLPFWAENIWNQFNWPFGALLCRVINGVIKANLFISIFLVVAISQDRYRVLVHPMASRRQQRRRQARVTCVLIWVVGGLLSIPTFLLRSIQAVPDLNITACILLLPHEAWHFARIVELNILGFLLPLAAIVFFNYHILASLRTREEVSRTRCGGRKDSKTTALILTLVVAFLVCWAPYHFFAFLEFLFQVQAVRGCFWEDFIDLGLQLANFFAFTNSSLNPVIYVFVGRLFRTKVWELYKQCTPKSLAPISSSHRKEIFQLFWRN
Summary of the method: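 IMR-90 human foetal lung fibroblasts induced with 0.35 ng/mL […] for 3 h, Fluo-4/AM-loaded, preincubated with compound (8 concentrations, triplicate) for 30 min at 28 °C, then challenged with Lys-(Des-Arg)-bradykinin at EC90. Ca2+ fluorescence was read at 538 nm; full inhibition set by 20 µM Lys-(Des-Arg-Leu)-bradykinin; IC50 derived.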

[2] = target: T2, human Bradykinin B1 receptor (Homo sapiens, UniProt P46663); assay: Calcium flux Assay (FLIPR) with recombinant CHO-K1 cells expressing human Bradykinin B1 receptor, in presence (hB1 IC50) or absence (hB1 free IC50) of 0.1% BSA; assay type: cell-based
T2 construct: host or cells: CHO-K1
T2 sequence (P46663 1-353): T1 sequence (P46663 1-353)

[3] = in absence of 0.1% BSA, read-out: hB1 free IC50
[4] = in presence of 0.1% BSA, read-out: hB1 IC50

Row | SMILES | IC50 [1] | IC50 [2, 3] | IC50 [2, 4]
1 | O=C(Nc1cc(F)c(-c2ccc(C(F)(F)F)nc2)c(-c2nnn[nH]2)c1)C1(c2cccc(Cl)c2)CC1 [Example 241, 1-(3-chlorophenyl)-N-{3-fluoro-5-(1H-tetrazol-5-yl)-4-[6-(trifluoromethyl)pyridin-3-yl]phenyl} cyclopropane-carboxamide] | 127 nM | 54.2 nM | –
2 | O=C(Nc1cc(F)c(-c2ccc(C(F)(F)F)nc2)c(-c2nnn[nH]2)c1)C1(c2ccc(C(F)(F)F)cc2F)CC1 [Example 242, N-{3-fluoro-5-(1H-tetrazol-5-yl)-4-[6-(trifluoromethyl)pyridin-3-yl]phenyl}-1-[2-fluoro-4-(trifluoromethyl)phenyl] cyclopropane-carboxamide] | 22.8 nM | 9.76 nM | –
3 | O=C(Nc1cc(F)c(-c2ccnc(C(F)(F)F)c2)c(-c2nnn[nH]2)c1)C1(c2cccc(Cl)c2)CC1 [Example 243, 1-(3-chlorophenyl)-N-{3-fluoro-5-(1H-tetrazol-5-yl)-4-[2-(trifluoromethyl)pyridin-4-yl]phenyl} cyclopropane-carboxamide] | 575 nM | 203 nM | –
4 | O=C(Nc1cc(F)c(-c2ccnc(C(F)(F)F)c2)c(-c2nnn[nH]2)c1)C1(c2ccc(F)c(F)c2)CC1 [Example 244, 1-(3,4-difluorophenyl)-N-{3-fluoro-5-(1H-tetrazol-5-yl)-4-[2-(trifluoromethyl)pyridin-4-yl]phenyl} cyclopropane-carboxamide] | 512 nM | 176 nM | –
5 | Cc1ccc(-c2c(F)cc(NC(=O)C3(c4cccc(Cl)c4)CC3)cc2-c2nnn[nH]2)cn1 [Example 245, 1-(3-chlorophenyl)-N-[3-fluoro-4-(6-methylpyridin-3-yl)-5-(1H-tetrazol-5-yl)phenyl] cyclopropane-carboxamide] | 7.85 nM | 8.11 nM | –
6 | CCOc1ccc(-c2c(Cl)cc(NC(=O)C3(c4cccc(Cl)c4)CC3)cc2-c2nnn[nH]2)cn1 [Example 247, N-[3-chloro-4-(6-ethoxypyridin-3-yl)-5-(1H-tetrazol-5-yl)phenyl]-1-(3-chlorophenyl) cyclopropane-carboxamide] | 37.3 nM | 20 nM | 61.8 nM
7 | CCOc1ccc(-c2c(Cl)cc(NC(=O)C3(c4cccc(Cl)c4F)CC3)cc2-c2nnn[nH]2)cn1 [Example 248, N-[3-chloro-4-(6-ethoxypyridin-3-yl)-5-(1H-tetrazol-5-yl)phenyl]-1-(3-chloro-2-fluoropheny) cyclopropane-carboxamide] | 25.2 nM | 14.4 nM | –
8 | O=C(Nc1ccc(-c2ccc(C(F)F)nc2)c(-c2nnn[nH]2)c1)C1(c2cccc(Cl)c2)CC1 [Example 260, 1-(3-chlorophenyl)-N-{4-[6-(difluoromethyl)pyridin-3-yl]-3-(1H-tetrazol-5-yl)phenyl}cyclopro-panecarboxa-mide] | 14.9 nM | 18.8 nM | –
9 | CCOc1ccc(-c2cc(O)c(NC(=O)C3(c4cccc(Cl)c4)CC3)cc2-c2nnn[nH]2)cn1 [Example 263, 1-(3-chlorophenyl)-N-[4-(6-ethoxypyridin-3-yl)-2-hydroxy-5-(1H-tetrazol-5-yl)phenyl]cyclopro-panecarboxa-mide] | 33.8 nM | 7.72 nM | 34.5 nM
10 | CC(F)(F)c1ccc(-c2ccc(NC(=O)C3(c4ccc(F)c(F)c4)CC3)cc2-c2nnn[nH]2)cn1 [Example 279, N-{4-[6-(1,1-difluoroethyl)py-ridin-3-yl]-3-(1H-tetrazol-5-yl)phenyl}-1-(3,4-difluorophenyl)cy-clopropanecar-boxamide] | 16.3 nM | 23.1 nM | –
11 | COc1cc(C(F)(F)F)ccc1C1(C(=O)Nc2ccc(-c3ccc(C(F)(F)F)nc3)c(-c3nnn[nH]3)c2)CC1 [Example 293, 1-[2-methoxy-4-(trifluoromethyl)phenyl]-N-{3-(1H-tetrazol-5-yl)-4-[6-(trifluoromethyl)pyridin-3-yl]phenyl}cyclopro-panecarboxa-mide] | 266 nM | 297 nM | –
12 | O=C(Nc1ccc(-c2ccc(C(F)(F)F)nc2)c(-c2nnn[nH]2)c1)C1(c2ccc(OC(F)(F)F)cc2F)CC1 [Example 294, 1-[2-fluoro-4-(trifluoromethoxy)phenyl]-N-{3-(1H-tetrazol-5-yl)-4-[6-(trifluoromethyl)pyridin-3-yl]phenyl}cyclopro-panecarboxa-mide] | 6.13 nM | 5.96 nM | –
13 | Cc1cncc(-c2ccc(NC(=O)C3(c4cccc(Cl)c4)CC3)cc2-c2nnn[nH]2)c1 [Example 326, 1-(3-chlorophenyl)-N-[4-(5-methylpyridin-3-yl)-3-(1H-tetrazol-5-yl)phenyl]cyclopro-panecarboxa-mide] | 45.2 nM | 20 nM | 22.3 nM
14 | COc1cnccc1-c1ccc(NC(=O)C2(c3cccc(Cl)c3)CC2)cc1-c1nnn[nH]1 [Example 327, 1-(3-chlorophenyl)-N-[4-(3-methoxypyridin-4-yl)-3-(1H-tetrazol-5-yl)phenyl]cyclopro-panecarboxa-mide] | 164 nM | 71.2 nM | 70.9 nM
15 | CCOc1ncc(-c2ccc(NC(=O)C3(c4cccc(Cl)c4)CC3)cc2-c2nnn[nH]2)cc1Cl [Example 328, N-[4-(5-chloro-6-ethoxypyridin-3-yl)-3-(1H-tetrazol-5-yl)phenyl]-1-(3-chlorophenyl)cy-clopropanecarbox-amide] | 127 nM | 13.5 nM | 77.9 nM
16 | O=C(Nc1ccc(-c2ccc(N3CCOCC3)nc2)c(-c2nnn[nH]2)c1)C1(c2cccc(Cl)c2)CC1 [Example 329, 1-(3-chlorophenyl)-N-{4-[6-(morpholin-4-yl)pyridin-3-yl]-3-(1H-tetrazol-5-yl)phenyl}cyclopro-panecarboxa-mide] | 70.3 nM | 85 nM | 90.5 nM

Continued, values first:

Row | IC50 [1] | IC50 [2, 3] | IC50 [2, 4] | SMILES
17 | 47.3 nM | 35.2 nM | – | O=C(Nc1ccc(-c2ccnc(C(F)F)c2)c(-c2nnn[nH]2)c1)C1(c2ccc(C(F)(F)F)cc2F)CC1 [Example 258, N-{4-[2-(difluoromethyl)pyridin-4-yl]-3-(1H-tetrazol-5-yl)phenyl}-1-[2-fluoro-4-(trifluoromethyl)phenyl]cyclopro-panecarboxamide]
18 | 10.6 nM | 3.52 nM | – | O=C(Nc1ccc(-c2ccc(C(F)F)nc2)c(-c2nnn[nH]2)c1)C1(c2ccc(C(F)(F)F)cc2F)CC1 [Example 259, N-{4-[6-(difluoromethyl)pyridin-3-yl]-3-(1H-tetrazol-5-yl)phenyl}-1-[2-fluoro-4-(trifluoromethyl)phenyl]cyclopro-panecarboxamide]
19 | 204 nM | 212 nM | – | O=C(Nc1ccc(-c2cnc(C(F)(F)F)nc2)c(-c2nnn[nH]2)c1)C1(c2ccc(C(F)(F)F)cc2F)CC1 [Example 261, 1-[2-fluoro-4-(trifluoromethyl)phenyl]-N-{3-(1H-tetrazol-5-yl)-4-[2-(trifluoromethyl)pyrimidin-5-yl]phenyl}cyclopro-panecarboxa-mide]
20 | 2.28 nM | 2.63 nM | – | Cc1cc(-c2c(F)cc(NC(=O)C3(c4ccc(C(F)(F)F)cc4F)CC3)cc2-c2nnn[nH]2)ccn1 [Example 265, N-[3-fluoro-4-(2-methylpyridin-4-yl)-5-(1H-tetrazol-5-yl)phenyl]-1-[2-fluoro-4-(trifluoromethyl)phenyl]cyclopro-panecarboxamide]
21 | 2.38 nM | 3.45 nM | – | Cc1ccc(-c2c(F)cc(NC(=O)C3(c4ccc(C(F)(F)F)cc4F)CC3)cc2-c2nnn[nH]2)cn1 [Example 266, N-[3-fluoro-4-(6-methylpyridin-3-yl)-5-(1H-tetrazol-5-yl)phenyl]-1-[2-fluoro-4-(trifluoromethyl)phenyl]cyclopro-panecarboxamide]
22 | 48.3 nM | 19 nM | – | O=C(Nc1cc(F)c(-c2ccnc(C(F)(F)F)c2)c(-c2nnn[nH]2)c1)C1(c2ccc(C(F)(F)F)cc2F)CC1 [Example 267, N-{3-fluoro-5-(1H-tetrazol-5-yl)-4-[2-(trifluoromethyl)pyridin-4-yl]phenyl}-1-[2-fluoro-4-(trifluoromethyl)phenyl]cyclopro-panecarboxamide]
23 | 6.17 nM | 6 nM | – | CC(F)(F)c1ccc(-c2ccc(NC(=O)C3(c4ccc(C(F)(F)F)cc4F)CC3)cc2-c2nnn[nH]2)cn1 [Example 281, N-{4-[6-(1,1-difluoroethyl)py-ridin-3-yl]-3-(1H-tetrazol-5-yl)phenyl}-1-[2-fluoro-4-(trifluoromethyl)phenyl]cyclopro-panecarboxamide]
24 | 2.36 nM | 22.5 nM | – | Cc1ccc(C2(C(=O)Nc3ccc(-c4ccc(C(F)(F)F)nc4)c(-c4nnn[nH]4)c3)CC2)c(F)c1 [Example 291, 1-(2-fluoro-4-methylphenyl)-N-{3-(1H-tetrazol-5-yl)-4-[6-(trifluoromethyl)pyridin-3-yl]phenyl}cyclopro-panecarboxa-mide]
25 | 33.8 nM | 24.1 nM | – | O=C(Nc1ccc(-c2ccnc(C(F)(F)F)c2)c(-c2nnn[nH]2)c1)C1(c2ccc(OC(F)(F)F)cc2F)CC1 [Example 295, 1-[2-fluoro-4-(trifluoromethoxy)phenyl]-N-{3-(1H-tetrazol-5-yl)-4-[2-(trifluoromethyl)pyridin-4-yl]phenyl}cyclopro-panecarboxa-mide]
